Where two headings read alike, the source gives them in different places.
Columns and labels:
[1] = test system: Key Grass and Sedge Weeds as well as Grass Crops; test: Post-emergent Test II herbicidal activity (Table 6); type: in vivo; conditions: post-emergence, 336 h; for pest or weed control at 70 g/ha: 70 g ai/ha; for pest or weed control at 140 g/ha: 140 g ai/ha
Summary of the method: (§1)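 Plants grown in Metro-Mix 360 (pH 6.0–6.8) in a greenhouse (~15 h photoperiod, 23–29 °C day) to first or second true leaf stage, then sprayed with compound in acetone/DMSO/aqueous crop-oil-surfactant carrier at 187 L/ha by track sprayer. Injury visually scored 0–100% versus untreated plants after 14 d.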

[2] = test system: Key Broadleaf Weed and Crop Species; test: Post-emergent Test II herbicidal activity (Table 5); type: in vivo; conditions: post-emergence, 336 h, 14 days after application; for pest or weed control at 70 g/ha: application rate 70 g ai/ha; for pest or weed control at 140 g/ha: application rate 140 g ai/ha
Summary of the method: as §1

[3] = CYPES: yellow nutsedge (Cyperus esculentus), read-out: Visual Growth Reduction (%) 14 Days After Application, CYPES
[4] = DIGSA: crabgrass (Digitaria sanguinalis), read-out: Visual Growth Reduction (%) 14 Days After Application, DIGSA
[5] = ECHCG: barnyardgrass (Echinochloa crus-galli), read-out: Visual Growth Reduction (%) 14 Days After Application, ECHCG
[6] = ORYSA: rice (Oryza sativa), crop, read-out: Visual Growth Reduction (%) 14 Days After Application, ORYSA
[7] = SETFA: giant foxtail (Setaria faberi), read-out: Visual Growth Reduction (%) 14 Days After Application, SETFA
[8] = SORVU: grain sorghum (Sorghum vulgare), read-out: Visual Growth Reduction (%) 14 Days After Application, SORVU
[9] = TRZSS (wheat, Triticum aestivum), crop, read-out: Visual Growth Reduction (%) 14 Days After Application, TRZSS
[10] = ZEAMX: maize, corn (Zea mays), crop, read-out: Visual Growth Reduction (%) 14 Days After Application, ZEAMX
[11] = ABUTH: velvetleaf (Abutilon theophrasti), read-out: Visual Growth Reduction (%) 14 Days After Application, ABUTH
[12] = AMARE: redroot pigweed (Amaranthus retroflexus), read-out: Visual Growth Reduction (%) 14 Days After Application, AMARE
[13] = BRSNN: oilseed-rape, canola (Brassica napus), read-out: Visual Growth Reduction (%) 14 Days After Application, BRSNN
[14] = CHEAL: lambsquarters (Chenopodium album), read-out: Visual Growth Reduction (%) 14 Days After Application, CHEAL
[15] = EPHHL: wild poinsettia (Euphorbia heterophylla), read-out: Visual Growth Reduction (%) 14 Days After Application, EPHHL
[16] = HELAN: sunflower (Helianthus annuus), read-out: Visual Growth Reduction (%) 14 Days After Application, HELAN
[17] = VIOTR: wild pansy (Viola tricolor), read-out: Visual Growth Reduction (%) 14 Days After Application, VIOTR

COc1c(N)nc(-c2ccc(Br)cc2)nc1C(=O)O [Compound 54] showed a pest or weed control at 70 g/ha [1, 3] of 45 to 59%, a pest or weed control at 140 g/ha [1, 3] of 95 to 100% and a pest or weed control at 70 g/ha [1, 4] of 0 to 29%. The pest or weed control at 140 g/ha [1, 4] was 60 to 74%, the pest or weed control at 70 g/ha [1, 5] was 95 to 100% and the pest or weed control at 140 g/ha [1, 5] was 95 to 100%. The pest or weed control at 70 g/ha [1, 6] was 0 to 29%, the pest or weed control at 140 g/ha [1, 6] was 0 to 29% and the pest or weed control at 70 g/ha [1, 7] was 75 to 84%. It also gave a pest or weed control at 140 g/ha [1, 7] of 75 to 84%, a pest or weed control at 70 g/ha [1, 8] of 60 to 74% and a pest or weed control at 140 g/ha [1, 8] of 75 to 84%. The pest or weed control at 70 g/ha [1, 9] was 45 to 59%, the pest or weed control at 140 g/ha [1, 9] was 45 to 59% and the pest or weed control at 70 g/ha [1, 10] was 95 to 100%. For the same compound, the pest or weed control at 140 g/ha [1, 10] was 95 to 100%, the pest or weed control at 70 g/ha [2, 11] was 85 to 94% and the pest or weed control at 140 g/ha [2, 11] was 85 to 94%. It also gave a pest or weed control at 70 g/ha [2, 12] of 95 to 100%, a pest or weed control at 140 g/ha [2, 12] of 95 to 100% and a pest or weed control at 70 g/ha [2, 13] of 95 to 100%. It also gave a pest or weed control at 140 g/ha [2, 13] of 95 to 100%, a pest or weed control at 70 g/ha [2, 14] of 95 to 100% and a pest or weed control at 140 g/ha [2, 14] of 95 to 100%. The pest or weed control at 70 g/ha [2, 15] was 95 to 100%, the pest or weed control at 140 g/ha [2, 15] was 95 to 100% and the pest or weed control at 70 g/ha [2, 16] was 85 to 94%. For the same compound, the pest or weed control at 140 g/ha [2, 16] was 95 to 100%, the pest or weed control at 70 g/ha [2, 17] was 30 to 44% and the pest or weed control at 140 g/ha [2, 17] was 45 to 59%.

— patent US9113629B2, “4-amino-6-(4-substituted-phenyl)-picolinates and 6-amino-2-(4-substituted-phenyl)-pyrimidine-4-carboxylates and their use as herbicides” (DOW AGROSCIENCES LLC, priority 2013, dated 2015)
